Experimental data taken from the supplement of paper PMC10307832.

Legend:
Experiment in all cases: relative viability (nuclei count vs DMSO), 5 days (fraction); higher = more cells survive
PAC-1 + Luminespib = compound: C=CCc1cccc(/C=N/NC(=O)CN2CCN(Cc3ccccc3)CC2)c1O [PAC-1] + CCNC(=O)c1noc(-c2cc(C(C)C)c(O)cc2O)c1-c1ccc(CN2CCOCC2)cc1 [Luminespib] (partner 0.01 µM)
Outline: (§1)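 Relative viability is defined as nuclei in treated wells over nuclei in vehicle wells. Duplicate plates were run and medians reported. Lung cancer cell lines in 1536-well plates were dosed by pin tool one day after seeding, with one drug or with a fixed anchor-drug dose plus five library-drug doses (not always all listed) in √10 steps, and nuclei were counted after 5 days.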

BMX-IN-1 + Bortezomib = compound: C=CC(=O)Nc1cc(-n2c(=O)ccc3cnc4ccc(-c5ccc(NS(C)(=O)=O)cc5)cc4c32)ccc1C [BMX-IN-1] + CC(C)C[C@H](NC(=O)[C@H](Cc1ccccc1)NC(=O)c1cnccn1)B(O)O [Bortezomib] (partner 0.002 µM)
Outline: as §1

BMX-IN-1 + Luminespib = compound: C=CC(=O)Nc1cc(-n2c(=O)ccc3cnc4ccc(-c5ccc(NS(C)(=O)=O)cc5)cc4c32)ccc1C [BMX-IN-1] + CCNC(=O)c1noc(-c2cc(C(C)C)c(O)cc2O)c1-c1ccc(CN2CCOCC2)cc1 [Luminespib] (partner 0.01 µM)
Outline: as §1

Ibrutinib + Pemetrexed = compound: C=CC(=O)N1CCC[C@@H](n2nc(-c3ccc(Oc4ccccc4)cc3)c3c(N)ncnc32)C1 [Ibrutinib] + Nc1nc2[nH]cc(CCc3ccc(C(=O)N[C@@H](CCC(=O)O)C(=O)O)cc3)c2c(=O)[nH]1 [Pemetrexed] (partner 0.2 µM)
Outline: as §1

| Cell Line | relative viability (PAC-1 + Luminespib; first compound 0.02 µM) | relative viability (PAC-1 + Luminespib; first compound 0.06325 µM) | relative viability (PAC-1 + Luminespib; first compound 0.2 µM) | relative viability (PAC-1 + Luminespib; first compound 2 µM) | relative viability (BMX-IN-1 + Bortezomib; first compound 0.02 µM) | relative viability (BMX-IN-1 + Bortezomib; first compound 0.2 µM) | relative viability (BMX-IN-1 + Bortezomib; first compound 0.6325 µM) | relative viability (BMX-IN-1 + Bortezomib; first compound 2 µM) | relative viability (BMX-IN-1 + Luminespib; first compound 0.02 µM) | relative viability (BMX-IN-1 + Luminespib; first compound 0.2 µM) | relative viability (BMX-IN-1 + Luminespib; first compound 0.6325 µM) | relative viability (BMX-IN-1 + Luminespib; first compound 2 µM) | relative viability (Ibrutinib + Pemetrexed; first compound 0.005 µM) | relative viability (Ibrutinib + Pemetrexed; first compound 0.01581 µM) | relative viability (Ibrutinib + Pemetrexed; first compound 0.05 µM) | relative viability (Ibrutinib + Pemetrexed; first compound 0.1581 µM) | relative viability (Ibrutinib + Pemetrexed; first compound 0.5 µM) |
| --- | --- | --- | --- | --- | --- | --- | --- | --- | --- | --- | --- | --- | --- | --- | --- | --- | --- |
| NCI-H2228 | 0.16 | 0.146 | 0.162 | 0.182 | 1.66 | 1.03 | 1.47 | 1.12 | 0.176 | 0.138 | 0.108 | 0.13 | 0.33 | 0.345 | 0.328 | 0.397 | 0.445 |
| SW 1573 | 0.214 | 0.175 | 0.223 | 0.371 | 1.38 | 1.06 | 1.08 | 0.996 | 0.28 | 0.221 | 0.225 | 0.205 | – | 0.917 | 0.968 | 0.88 | 1.25 |
| PC-14 | 0.127 | 0.172 | 0.151 | 0.252 | 0.934 | 0.953 | 1.01 | 0.954 | 0.184 | 0.107 | 0.14 | 0.152 | 0.157 | 0.138 | 0.133 | 0.121 | 0.201 |
| EMC-BAC-2 | 1.19 | 1.17 | 1.18 | 1.15 | 1.15 | 1.1 | 1.26 | 1.1 | 1.36 | 1.33 | 1.4 | 1.1 | 0.527 | 0.449 | 0.541 | – | 0.714 |
| NCI-H520 | 0.269 | 0.248 | 0.252 | 0.216 | 0.604 | 0.741 | 0.863 | 0.465 | 0.243 | 0.231 | 0.243 | 0.218 | 0.67 | 0.769 | 0.666 | 0.718 | 0.724 |
| A-427 | 1.13 | 0.769 | 0.988 | 0.951 | 1.03 | 1.06 | 1.18 | 0.985 | 1.13 | 0.844 | 1.01 | 1.04 | 0.986 | 0.995 | 0.961 | – | 1.02 |
| LC-2-ad | 1.06 | 1.02 | 0.971 | 0.963 | 1.02 | 1.28 | 1.01 | 1.04 | 1.16 | 1.1 | 0.884 | 0.974 | 0.279 | 0.272 | 0.274 | 0.258 | 0.293 |
| COR-L23 | 0.569 | 0.71 | 0.629 | 0.625 | 1.27 | 1.54 | 1.09 | 1.05 | 0.807 | 0.782 | 1.07 | 0.548 | 0.211 | 0.179 | 0.204 | 0.198 | 0.235 |
| NCI-H3122 | 0.119 | 0.0845 | 0.0804 | 0.0955 | 1.04 | 0.974 | 1.05 | 0.994 | 0.114 | 0.0826 | 0.103 | 0.0683 | 0.214 | 0.203 | 0.219 | 0.191 | 0.301 |
